The test system of this assay is endothelial "ionic pump". The experiment in a line: pump function tested by pachymetry of transplanted corneas after exposure to ouabain. Further details: species or system human. The conditions noted are these: 200 μM ouabain. The procedure:
Corneas from donors (52-80 years old) were obtained from an eye bank. Descemet's membrane was stripped and endothelial cells were removed by mild EDTA treatment. Cells, cultured in the preferred formulation of the culture medium, were identified by RT-PCR of collagen type VIII and keratin-12 and by morphology. Cells (2.5×10^5) were seeded onto denuded Descemet's membrane from a second donor cornea. The cornea was incubated in culture for up to 1 month. Cell-cell contact of transplanted cells was evaluated by ZO-1 staining. Morphology and ultrastructure were examined by transmission electron microscopy. Pump function was tested by pachymetry after exposure to 200 μM ouabain. Cultured cells were identified as corneal endothelium by characteristic mRNA expression and morphology. The success rate of primary cultures, obtained from corneas stored <5 days after death, was about 99%. […] With time, cell-substrate adhesion, cell-cell contact, and lateral interdigitation increased, and the cells rearranged to form a monolayer. When the endothelium is functional, it draws water out of the corneal stroma, resulting in a thin cornea. Ouabain, a cardiac glycoside, inhibits the function of the endothelial “ionic pump”, causing an increase in corneal thickness. […] Referring to FIG. 4, pachymetry of transplanted corneas after ouabain treatment is graphically depicted. […]

The values below come from patent publication US6541256B1, “Growth medium for human corneal endothelial cells” (The Schepens Eye Research Institute, Inc., priority 1999, dated 2003).

Take `C[C@@H]1O[C@@H](O[C@H]2C[C@@H](O)[C@]3(CO)[C@H]4[C@H](O)C[C@]5(C)[C@@H](C6=CC(=O)OC6)CC[C@]5(O)[C@@H]4CC[C@]3(O)C2)[C@H](O)[C@H](O)[C@H]1O` [ouabain]: for the setting “transplanted corneas after 14 days in organ culture”, the “period over which corneal thickness increased to maximum” value was in the range of 2 to 3 h. In addition, under “transplants maintained 14 days in organ culture, 5 corneas”, the “corneal thickness measured by pachymetry (FIG. 4)” value is given as “increased to a level equal to that of corneas denuded of endothelium”.
